Laboratory results as given in ChEMBL document CHEMBL5390306, “Development of Conformationally Restricted Negamycin Derivatives for Potent Readthrough Activity” (ACS Med Chem Lett, 2023).
Activity calls are given as the source filed them. The calls are words filed in the database; no cut-off is given here.

What was measured:
Assay type in all cases: functional, cell-based
[1] = system: Premature termination codon; assay: Readthrough activity against UGA type PTC 5'-TTGAAAGAGCAATAAAATGGCTTCAAC-3' from DMD mdx mouse overexpressed in COS7 cells assessed as ratio of luciferase activity to beta-galactosidase activity at 6.25 to 200 uM incubated for 48 hrs by Dual luciferase reporter assay; conditions: dose 6.25-200 µM
[2] = system: Premature termination codon; assay: Readthrough activity against UGA type PTC 5'-TTGAAAGAGCAATAAAATGGCTTCAAC-3' from DMD mdx mouse overexpressed in COS7 cells assessed as ratio of luciferase activity to beta-galactosidase activity at 200 uM incubated for 48 hrs by Dual luciferase reporter assay
[3] = system: Premature termination codon; assay: Readthrough activity against UAG type PTC 5'-TTGAAAGAGCAATAAAATGGCTTCAAC-3' from DMD mdx mouse overexpressed in COS7 cells assessed as ratio of luciferase activity to beta-galactosidase activity at 200 uM incubated for 48 hrs by Dual luciferase reporter assay
[4] = system: Premature termination codon; assay: Readthrough activity against UAA type PTC 5'-TTGAAAGAGCAATAAAATGGCTTCAAC-3' from DMD mdx mouse overexpressed in COS7 cells assessed as ratio of luciferase activity to beta-galactosidase activity at 200 uM incubated for 48 hrs by Dual luciferase reporter assay
[5] = system: Premature termination codon; assay: Readthrough activity against UGA type PTC 5'-TTGAAAGAGCAATAAAATGGCTTCAAC-3' from DMD mdx mouse overexpressed in COS7 cells assessed as readthrough efficiency at 200 uM incubated for 48 hrs by Dual luciferase reporter assay relative to control
[6] = system: Premature termination codon; assay: Readthrough activity against UGA type PTC 5'-TTGAAAGAGCAATAAAATGGCTTCAAC-3' from DMD mdx mouse overexpressed in COS7 cells assessed as ratio of luciferase activity to beta-galactosidase activity incubated for 48 hrs by Dual luciferase reporter assay; conditions: dose 6.25-200 µM
[7] = system: Premature termination codon; assay: Potency index, ratio of 2,6-diaminopurine to test compound for readthrough activity against UGA type PTC 5'-TTGAAAGAGCAATAAAATGGCTTCAAC-3' from DMD mdx mouse overexpressed in COS7 cells at 200 uM incubated for 48 hrs by Dual luciferase reporter assay
[8] = system: Premature termination codon; assay: Potency index, ratio of G418 to test compound for readthrough activity against UGA type PTC 5'-TTGAAAGAGCAATAAAATGGCTTCAAC-3' from DMD mdx mouse overexpressed in COS7 cells at 200 uM incubated for 48 hrs by Dual luciferase reporter assay

| SMILES | Ratio [2] | Ratio [3] | Ratio [4] | also measured |
| --- | --- | --- | --- | --- |
| O=C(O)c1cccc(-c2noc(-c3ccccc3F)n2)c1 |  |  |  | Activity [1]: Active |
| CC(C)C[C@H](N)C(=O)N[C@H](CC(=O)NN(C)CC(=O)O)[C@H]1C[C@H]1CN | 3.08 |  |  |  |
| CN[C@@H]1[C@@H](O)[C@@H](O[C@@H]2[C@@H](O)[C@H](O[C@H]3O[C@H]([C@@H](C)O)[C@@H](O)[C@H](O)[C@H]3N)[C@@H](N)C[C@H]2N)OC[C@]1(C)O | 6.01 | 4.68 | 4.5 | Activity [5]: 1.71%; Activity [6]: Dose-Dependent Effect |
| COCCCCCCC[C@H](N)C(=O)N[C@H](CC(=O)NN(C)CC(=O)O)[C@H]1C[C@H]1CN | 1.94 |  |  |  |
| CN(CC(=O)O)NC(=O)C[C@@H](NC(=O)[C@@H](N)CCCCCCCO)[C@H]1C[C@H]1CN | 3.25 |  |  |  |
| CCCCCC/C=C/C[C@H](N)C(=O)N[C@H](CC(=O)NN(C)CC(=O)O)[C@H]1C[C@H]1CN | 16.9 |  |  |  |
| CN(CC(=O)O)NC(=O)C[C@@H](N)CCCN | 2.69 | 1.95 | 1.22 |  |
| CN(CC(=O)O)NC(=O)C[C@H](N)C[C@@H](O)CN | 1.55 | 0.91 | 1.31 |  |
| CN(CC(=O)O)NC(=O)C[C@@H](N)[C@H]1C[C@H]1CN | 8.36 | 6.24 | 1.3 | Activity [6]: Dose-Dependent Effect |
| CCCCCCCCC[C@H](N)C(=O)N[C@@H](CCCN)CC(=O)NN(C)CC(=O)O | 19.5 |  |  |  |
| Nc1nc(N)c2nc[nH]c2n1 |  |  |  | Activity [6]: Dose-Dependent Effect |
| CCCCCCCCC[C@H](N)C(=O)N[C@H](CC(=O)NN(C)CC(=O)O)[C@H]1C[C@H]1CN | 23 | 11.4 | 1.81 | fold change (FC) [7]: 2; fold change (FC) [8]: 2; Activity [5]: 2.88%; Activity [6]: Dose-Dependent Effect |
| CC(C)C[C@@H](N)C(=O)N[C@H](CC(=O)NN(C)CC(=O)O)[C@H]1C[C@H]1CN | 1.01 |  |  |  |
| CCCC(=O)NCCCC[C@H](N)C(=O)N[C@H](CC(=O)NN(C)CC(=O)O)[C@H]1C[C@H]1CN | 2.05 |  |  |  |
| CCCCCCC(=O)NC[C@H](N)C(=O)N[C@H](CC(=O)NN(C)CC(=O)O)[C@H]1C[C@H]1CN | 1.38 |  |  |  |
